Assay results from patent EP0317053B1, “Trigramin- a platelet aggregation inhibiting polypeptide” (Temple University of the Commonwealth System of Higher …, priority 1987, dated 1989).
Where no end group is shown, it is not given here.

Experiments:
[1] = Hamster mesentery bleeding time during continuous intravenous infusion; format: in vivo, golden Syrian hamsters; conditions: 2 ng/kg/min; one hamster; positive control
Description: Female golden Syrian hamsters (90-150 g) were maintained on food and water ad libitum, but fasted overnight prior to their use in the present experiment. After the administration of anesthesia (65 mg/kg sodium pentobarbital, i.p.), the animals were shaved in preparation for surgery. The trachea was intubated with PE-100 polyethylene tubing to facilitate spontaneous breathing. Cannulation of the right femoral vein was performed to provide an intravenous route for supplemental anesthesia as well as for the administration of various control and experiment agents. A catheter was introduced into the right carotid artery for the continuous monitoring of arterial blood pressure, and a rectal temperature probe was inserted. […]
The shaved abdomen was opened by a mid-line incision and a portion of the small intestine was exteriorized and draped over a lucite pedestal. […] Bleeding was observed through Zeiss dissecting microscope (20 X) and bleeding time was recorded from the time of the cut until the cessation of bleeding by the formation of a hemostatic plug. Each animal was used as its own control with bleeding time determined both during the infusion of saline and the selected experimental agent. […] Four additional animals were infused with trigramin while arterial blood pressure was continuously monitored to determine if it had any direct effect on systemic blood pressure. […]

[2] = test system: GPIIb-GPIIIa complex; assay: Binding of 125I-trigramin to human platelets; conditions: both ligands

Row | Compound | time after the completion of the infusion until bleeding ceased [1] | inhibition of the binding of ¹²⁵I-trigramin and of ¹²⁵I-fibrinogen to human platelets [2]
1 | CC#CCC(C)[C@H](O)/C=C/[C@@H]1[C@H]2C/C(=C/CCCC(=O)O)C[C@H]2C[C@H]1O (some centres unmarked) [Iloplrost] | approximately 9 minutes | –
2 | GQQHHLGGAKQAGDV | – | inhibited
